What was measured:
Huh7 cells = assay: TC50 MTS cell viability assay with Huh7 cells (48 h); assay type: cell-based; conditions: Homo sapiens, Huh-7
Excerpt: Plating Cells: Huh7 cells (a hepatocellular carcinoma cell-line; these cells can be obtained from the Japanese Collection of Research Bioresources (JCRB), Osaka, Japan) were used to determine the TC50 for representative compounds of the present invention. Briefly, Huh7 cells were passaged when they reached about 70% confluency. The cells were counted using a hemocytometer following dilution of the cells to about 0.5×10^5 cells per mL in DMEM with 10% fetal bovine serum (FBS). The cells were plated in a clear 96-well plate (about 5,000 cells in 100 μL per well). The cells were allowed to attach for about 24 hours at 37° C.
Treating of the cells: The DMEM media without phenol red containing 2% FBS was pre-warmed to 37° C. […] Following dilution, the final DMSO concentration was about 0.5% (v/v). […] The plates were then returned to the incubator and incubated with the cells for 48 h at 37° C.
(§1) The 96-well plate with cells incubated with test compound was removed from the 37° C. incubator. The appropriate amounts of the MTS and PMS reagents were removed from the kit and mixed well. The reagents were maintained in the dark due to their light sensitivity. […] The solutions were mixed completely in the wells prior to each reading.

PK9 cells = assay: TC50 assay, effect of deficient deoxycytidine kinase activity, PK9 cells; assay type: cell-based; conditions: Homo sapiens, 48 h, read-out: TC50 (μM), 48 h treatment
Method: (§2) Plating Cells: PK9 or RPK9 cells were seeded in 96-well plates at a density of 2,500 cells/well or 2,500 cells/well, respectively, and the plates were incubated at 37° C. for 24 h to allow for cell attachment.
(§3) Treating with Control & Compound 1: The cells were treated with each compound at final concentrations ranging from 500 μM to 0 μM in triplicate in media containing 2% FBS and 0.5% DMSO.
(§4) The RPK9 cells are described in Saiki, T., et al. (2012) Biochim. Biophys. Res. Commun. 421, 98-104).

HEPG2 = assay: TC50 assay in different human cell lines (96 h), HEPG2; assay type: cell-based; conditions: about 96 h, MTS assay
Method: as §1
Plating Cells: Huh7, HEPG2, HEK293, MCF-7, or BxPC3 cells (which can be obtained from American Type Culture Collection, ATCC) were passaged when they were about 70% confluent. […] The cells following passaging were allowed to attach for about 24 hours at 37° C.
The plates were then returned to the incubator, and cells incubated for about 96 h at 37° C.
MTS Assay: Assay was carried out as described above.

[1] = Stability test at different pH conditions (HPLC); assay type: physicochemical
Method: HPLC analysis: 100 μl of the incubated solution was loaded onto a Vydac C18 analytical column 4.6/250, and the mobile phase run at 1 mL/min water with the following procedures: a. Inject 100 μl the incubated solution; b. Water for 5 minutes at 1 ml/min; c. 0-100% acetonitrile over 30 minutes; d. Back to 100% water.
Analysis: Standard HPLC analysis software was used to quantitate the area under each peak. Degradation peaks were quantitated as a percentage of the peak of the same amount of control sample (no heat treatment).

RPK9 cells = assay: cells; conditions: Homo sapiens, 48 h, read-out: TC50 (μM), 48 h treatment
Method: as §2, §3, §4

SMILES: O=C(Nc1ccn(C2O[C@H](CO)[C@@H](O)C2(F)F)c(=O)n1)c1ccc2c(c1)OCO2 (stereo partly drawn) [Compound 1, N-(1-((4R,5R)-3,3-difluoro-4-hydroxy-5-(hydroxymethyl)tetrahydrofuran-2-yl)-2-oxo-1,2-dihydropyrimidin-4-yl)benzo[d][1,3]dioxole-5-carboxamide]
- CC50 (Huh7 cells): 473000 ± 74000 nM
- CC50 (PK9 cells): 1.63 ± 0.1 µM
- CC50 (HEPG2): 2810 nM
- Compound remaining (%) ([1]; Pretreatment): 100%
- Compound remaining (%) ([1]; pH 1, 40° C., 4 h): 64%
- Compound remaining (%) ([1]; pH 2, 40° C., 4 h): 100%
- Compound remaining (%) ([1]; pH 4, 40° C., 4 h): 100%
- Compound remaining (%) ([1]; pH 6, 40° C., 4 h): 100%
- Compound remaining (%) ([1]; pH 8, 40° C., 4 h): 92%
- CC50 (RPK9 cells): > 500 µM

— patent US10000521B2 (priority 2013, dated 2018)
